Measurements as given in patent US12077503B2, “Substituted cyclic amides and their use as herbicides” (FMC CORPORATION, priority 2015, dated 2024).
Where two headings read alike, the source gives them in different places.

Key:
Format in all cases: in vivo
[1] = tested on: pigweed (Amaranthus retroflexus); experiment: Test A postemergence; details: Amaranthus retroflexus, post-emergence, 240 h; for pest or weed control at 125 g/ha: 125 g ai/ha
In short: (§1)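 Treatment is preemergence as a directed soil spray after planting, or postemergence at the one- to two-leaf stage, with test chemical in a non-phytotoxic solvent mixture plus surfactant. Plants stay in the greenhouse about 10 d before visual injury scoring on a 0 to 100 scale versus untreated controls.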

[2] = tested on: blackgrass (Alopecurus myosuroides); experiment: Test A postemergence; details: Alopecurus myosuroides, post-emergence, 240 h; for pest or weed control at 125 g/ha: 125 g ai/ha
In short: as §1

Kochia (Kochia scoparia) [3] = experiment: Test A postemergence; details: Bassia scoparia, post-emergence, 240 h; for pest or weed control at 125 g/ha: 125 g ai/ha
In short: as §1

[4] = tested on: giant foxtail (Setaria faberii); experiment: Test A postemergence; details: Setaria faberi, post-emergence, 240 h; for pest or weed control at 125 g/ha: 125 g ai/ha
In short: as §1

corn (Zea mays) = experiment: Test A postemergence; details: Zea mays, post-emergence, 240 h
In short: as §1

[5] = tested on: Galium (catchweed bedstraw, Galium aparine); experiment: Test A postemergence; details: Galium, post-emergence, 240 h; for pest or weed control at 125 g/ha: 125 g ai/ha
In short: as §1

[6] = tested on: barnyardgrass (Echinochloa crus-galli); experiment: Test A postemergence; details: Echinochloa crus-galli, post-emergence, 240 h; for pest or weed control at 125 g/ha: 125 g ai/ha
In short: as §1

[7] = tested on: ragweed (common ragweed, Ambrosia elatior); experiment: Test A postemergence; details: Ambrosia artemisiifolia, post-emergence, 240 h; for pest or weed control at 125 g/ha: 125 g ai/ha
In short: as §1

[8] = tested on: ryegrass, Italian (Italian ryegrass, Lolium multiflorum); experiment: Test A postemergence; details: Lolium multiflorum, post-emergence, 240 h; for pest or weed control at 125 g/ha: 125 g ai/ha
In short: as §1

[9] = tested on: wheat (Triticum aestivum); experiment: Test A postemergence; details: Triticum aestivum, post-emergence, 240 h; for plant injury at 125 g/ha: 125 g ai/ha
In short: as §1

[10] = tested on: pigweed (Amaranthus retroflexus); experiment: Test A preemergence; details: Amaranthus retroflexus, pre-emergence, 240 h; for pest or weed control at 125 g/ha: 125 g ai/ha; for pest or weed control at 500 g/ha: 500 g ai/ha
Kochia (Kochia scoparia) [11] = experiment: Test A preemergence; details: Bassia scoparia, pre-emergence, 240 h; for pest or weed control at 125 g/ha: 125 g ai/ha; for pest or weed control at 500 g/ha: 500 g ai/ha
In short: as §1

[12] = tested on: barnyardgrass (Echinochloa crus-galli); experiment: Test A preemergence; details: Echinochloa crus-galli, pre-emergence, 240 h; for pest or weed control at 125 g/ha: 125 g ai/ha; for pest or weed control at 500 g/ha: 500 g ai/ha
In short: as §1

[13] = tested on: ragweed (common ragweed, Ambrosia elatior); experiment: Test A preemergence; details: Ambrosia artemisiifolia, pre-emergence, 240 h; for pest or weed control at 125 g/ha: 125 g ai/ha, preemergence, 0 to 100 scale where 0 is no effect and 100 is complete control, read-out: Ragweed plant response rating
In short: as §1

[14] = tested on: ryegrass, Italian (Italian ryegrass, Lolium multiflorum); experiment: Test A preemergence; details: Lolium multiflorum, pre-emergence, 240 h; for pest or weed control at 125 g/ha: 125 g ai/ha; for pest or weed control at 500 g/ha: 500 g ai/ha
In short: as §1

[15] = preemergence, 0 to 100 scale where 0 is no effect and 100 is complete control, read-out: Pigweed plant response rating
[16] = preemergence, 0 to 100 scale where 0 is no effect and 100 is complete control, read-out: Kochia plant response rating
[17] = preemergence, 0 to 100 scale where 0 is no effect and 100 is complete control, read-out: Barnyardgrass plant response rating
[18] = preemergence, 0 to 100 scale where 0 is no effect and 100 is complete control, read-out: Ryegrass, Italian plant response rating

`CN1CC[C@H](c2cccc(Cl)c2)[C@@H](C(=O)Nc2cccc(Cl)c2F)C1=O` [Compound 924] was tested, and the pest or weed control at 125 g/ha ([1]; Postemergence, visual injury after approximately 10 d, 0 to 100 scale where 0 is no effect and 100 is complete control, read-out: Plant response rating, Pigweed) was 0%, the pest or weed control at 125 g/ha ([2]; Postemergence, visual injury after approximately 10 d, 0 to 100 scale where 0 is no effect and 100 is complete control, read-out: Plant response rating, Blackgrass) was 0% and the pest or weed control at 125 g/ha (Kochia (Kochia scoparia) [3]; Postemergence, visual injury after approximately 10 d, 0 to 100 scale where 0 is no effect and 100 is complete control, read-out: Plant response rating, Kochia) was 0%. For the same compound, the pest or weed control at 125 g/ha ([4]; Postemergence, visual injury after approximately 10 d, 0 to 100 scale where 0 is no effect and 100 is complete control, read-out: Plant response rating, Foxtail, Giant) was 90%, the Corn plant response rating (crop injury, 0 = no effect, 100 = complete kill) at 125 g/ha (corn (Zea mays); 125 g ai/ha, Postemergence, visual injury after approximately 10 d, 0 to 100 scale where 0 is no effect and 100 is complete control) was 0% and the pest or weed control at 125 g/ha ([5]; Postemergence, visual injury after approximately 10 d, 0 to 100 scale where 0 is no effect and 100 is complete control, read-out: Plant response rating, Galium) was 0%. For the same compound, the pest or weed control at 125 g/ha ([6]; Postemergence, visual injury after approximately 10 d, 0 to 100 scale where 0 is no effect and 100 is complete control, read-out: Plant response rating, Barnyardgrass) was 90%, the pest or weed control at 125 g/ha ([7]; Postemergence, visual injury after approximately 10 d, 0 to 100 scale where 0 is no effect and 100 is complete control, read-out: Plant response rating, Ragweed) was 0% and the pest or weed control at 125 g/ha ([8]; Postemergence, visual injury after approximately 10 d, 0 to 100 scale where 0 is no effect and 100 is complete control, read-out: Plant response rating, Ryegrass, Italian) was 0%. For the same compound, the plant injury at 125 g/ha ([9]; Postemergence, visual injury after approximately 10 d, 0 to 100 scale where 0 is no effect and 100 is complete control, read-out: Plant response rating, Wheat) was 0%, the pest or weed control at 125 g/ha [10, 15] was 0% and the pest or weed control at 500 g/ha ([10]; Preemergence, visual injury vs untreated controls after approximately 10 d, read-out: Pigweed plant response rating (0 to 100 scale where 0 is no effect and 100 is complete control)) was 0%. The pest or weed control at 125 g/ha (Kochia (Kochia scoparia) [11]; [16]) was 0%, the pest or weed control at 500 g/ha (Kochia (Kochia scoparia) [11]; Preemergence, visual injury vs untreated controls after approximately 10 d, read-out: Kochia plant response rating (0 to 100 scale where 0 is no effect and 100 is complete control)) was 0% and the pest or weed control at 125 g/ha [12, 17] was 90%. For the same compound, the pest or weed control at 500 g/ha ([12]; Preemergence, visual injury vs untreated controls after approximately 10 d, read-out: Barnyardgrass plant response rating (0 to 100 scale where 0 is no effect and 100 is complete control)) was 90%, the pest or weed control at 125 g/ha [13] was 0% and the pest or weed control at 500 g/ha ([13]; 500 g ai/ha, Preemergence, visual injury vs untreated controls after approximately 10 d, read-out: Ragweed plant response rating (0 to 100 scale where 0 is no effect and 100 is complete control)) was 0%. It also gave a pest or weed control at 125 g/ha [14, 18] of 20% and a pest or weed control at 500 g/ha ([14]; Preemergence, visual injury vs untreated controls after approximately 10 d, read-out: Ryegrass, Italian plant response rating (0 to 100 scale where 0 is no effect and 100 is complete control)) of 70%.

For `Cc1c(F)cccc1NC(=O)[C@H]1C(=O)NC[C@@H]1c1cc(F)c(F)c(F)c1` [Compound 1125], the pest or weed control at 125 g/ha ([1]; postemergence, visual injury on 0 to 100 scale (0 no effect, 100 complete control), approx. 10 d, read-out: Pigweed plant response rating) was 0%, the pest or weed control at 500 g/ha ([1]; 500 g ai/ha, postemergence, 0 to 100 scale, 0 is no effect, 100 is complete control, read-out: Pigweed plant response rating) was 0% and the pest or weed control at 125 g/ha ([2]; postemergence, visual injury on 0 to 100 scale (0 no effect, 100 complete control), approx. 10 d, read-out: Blackgrass plant response rating) was 40%. It also gave a pest or weed control at 500 g/ha ([2]; 500 g ai/ha, postemergence, 0 to 100 scale, 0 is no effect, 100 is complete control, read-out: Blackgrass plant response rating) of 50%, a pest or weed control at 125 g/ha (Kochia (Kochia scoparia) [3]; postemergence, visual injury on 0 to 100 scale (0 no effect, 100 complete control), approx. 10 d, read-out: Kochia plant response rating) of 0% and a pest or weed control at 500 g/ha (Kochia (Kochia scoparia) [3]; 500 g ai/ha, postemergence, 0 to 100 scale, 0 is no effect, 100 is complete control, read-out: Kochia plant response rating) of 40%. For the same compound, the pest or weed control at 125 g/ha ([4]; postemergence, visual injury on 0 to 100 scale (0 no effect, 100 complete control), approx. 10 d, read-out: Foxtail, Giant plant response rating) was 90%, the pest or weed control at 500 g/ha ([4]; 500 g ai/ha, postemergence, 0 to 100 scale, 0 is no effect, 100 is complete control, read-out: Foxtail, Giant plant response rating) was 90% and the plant injury at 125 g/ha (corn (Zea mays); 125 g ai/ha, postemergence, visual injury on 0 to 100 scale (0 no effect, 100 complete control), approx. 10 d, read-out: Corn plant response rating) was 30%. For the same compound, the plant injury at 500 g/ha (corn (Zea mays); 500 g ai/ha, postemergence, 0 to 100 scale, 0 is no effect, 100 is complete control, read-out: Corn plant response rating) was 60%, the pest or weed control at 125 g/ha ([5]; postemergence, visual injury on 0 to 100 scale (0 no effect, 100 complete control), approx. 10 d, read-out: Galium plant response rating) was 40% and the pest or weed control at 500 g/ha ([5]; 500 g ai/ha, postemergence, 0 to 100 scale, 0 is no effect, 100 is complete control, read-out: Galium plant response rating) was 50%. For the same compound, the pest or weed control at 125 g/ha ([6]; postemergence, visual injury on 0 to 100 scale (0 no effect, 100 complete control), approx. 10 d, read-out: Barnyardgrass plant response rating) was 90%, the pest or weed control at 500 g/ha ([6]; 500 g ai/ha, postemergence, 0 to 100 scale, 0 is no effect, 100 is complete control, read-out: Barnyardgrass plant response rating) was 90% and the pest or weed control at 125 g/ha ([7]; postemergence, visual injury on 0 to 100 scale (0 no effect, 100 complete control), approx. 10 d, read-out: Ragweed plant response rating) was 0%. The pest or weed control at 500 g/ha ([7]; 500 g ai/ha, postemergence, 0 to 100 scale, 0 is no effect, 100 is complete control, read-out: Ragweed plant response rating) was 0%, the pest or weed control at 125 g/ha ([8]; postemergence, visual injury on 0 to 100 scale (0 no effect, 100 complete control), approx. 10 d, read-out: Ryegrass, Italian plant response rating) was 0% and the pest or weed control at 500 g/ha ([8]; 500 g ai/ha, postemergence, 0 to 100 scale, 0 is no effect, 100 is complete control, read-out: Ryegrass, Italian plant response rating) was 60%. The plant injury at 125 g/ha ([9]; postemergence, visual injury on 0 to 100 scale (0 no effect, 100 complete control), approx. 10 d, read-out: Wheat plant response rating) was 30%, the plant injury at 500 g/ha ([9]; 500 g ai/ha, postemergence, 0 to 100 scale, 0 is no effect, 100 is complete control, read-out: Wheat plant response rating) was 40% and the pest or weed control at 125 g/ha ([10]; preemergence, 0 to 100 scale where 0 is no effect and 100 is complete control, approx. 10 d, read-out: Pigweed plant response rating) was 0%. It also gave a pest or weed control at 500 g/ha [10, 15] of 40%, a pest or weed control at 125 g/ha (Kochia (Kochia scoparia) [11]; preemergence, 0 to 100 scale where 0 is no effect and 100 is complete control, approx. 10 d, read-out: Kochia plant response rating) of 50% and a pest or weed control at 500 g/ha (Kochia (Kochia scoparia) [11]; [16]) of 80%. For the same compound, the pest or weed control at 125 g/ha ([12]; preemergence, 0 to 100 scale where 0 is no effect and 100 is complete control, approx. 10 d, read-out: Barnyardgrass plant response rating) was 90%, the pest or weed control at 500 g/ha [12, 17] was 90% and the pest or weed control at 125 g/ha ([13]; approx. 10 d) was 0%. The pest or weed control at 125 g/ha ([14]; preemergence, 0 to 100 scale where 0 is no effect and 100 is complete control, approx. 10 d, read-out: Ryegrass, Italian plant response rating) was 0% and the pest or weed control at 500 g/ha [14, 18] was 60%.
